The text below walks through data of patent US20110200655A1, “Systems and methods that kill infectious agents (bacteria) without the use of a systemic anti-biotic” (priority 2010, published 2011).

The target in test [1] is MMPs. To be noted: compared with Ilomastat; cited from earlier work.
Test [2] concerns microorganisms. To be noted: tobramycin 2.5 mg/l, 15-400 µA/cm^2 during 8 h; cited from earlier work.
Test [3] concerns Staph. aureus. Description: Zone of inhibition of extract solutions on agar culture plate. In kind it is cell-based, Staphylococcus aureus. How it is done:
The extract solutions were tested for antimicrobial activity by placing single 20 microliter drops of the solutions at marked locations on an agar culture plate spread with ~3×10^3 CFU (continuous lawn) of E. coli bacteria. Plates were incubated overnight at 37° C., and the diameter of the “zone of inhibition”, or “ZOI” was measured. The size of this zone corresponds to the antibacterial activity of the extract solutions.
The samples were soaked in 25 mL of 5% PG solution for 2 hours, then squeezed to remove excess solution, dried and weighed. Samples were then washed with 25 mL of distilled water for one hour, then dried and weighed. These wash solutions (G-1 and H-1) were saved for analysis. The samples were then subjected to two additional washings with 25 mL distilled water, without drying in between washings (G-2, G-3, and H-2, H-3). Samples were then dried and weighed.
A repeat of the method of Example 15 was used, except that the extraction solvent used was phosphate buffered saline (“PBS”, pH=7.4, Fisher Scientific), and samples were not dried and weighed between extractions. Samples of a microbicidal utility substrate (Sample I, initial weight=1.024 g) and SofWick (Sample J, initial weight=1.011 g) were each soaked in 20 Ml of ~4% penicillin G solution overnight, and excess solution was removed by squeezing. Samples were then washed with 25 mL distilled water for one hour with agitation, squeezed to remove excess liquid, and then subjected to five sequential extractions using 25 mL of PBS for one hour at room temperature. Samples were squeezed to remove excess solution between extractions. Extracts were tested for antibacterial activity against S. aureus according to the procedure outlined above.
The method of Example 15 was used, except that sodium pyrithione (“SP”, Acros Chemical) was used instead of penicillin. One gram samples of the microbicidal utility substrate (sample K), and untreated SofWick (sample L) were each soaked overnight in 25 ml of 0.5% SP solution. Samples were removed and squeezed to remove excess liquid. Samples were then washed in 25 mL of distilled water for one hour with agitation, then squeezed to remove excess liquid. Each sample was subjected to four sequential extractions using 25 mL of distilled water for one hour at room temperature with agitation. Samples were squeezed to remove excess solution between extraction cycles. The extracts were tested for antibacterial activity against S. aureus using the procedure described above.

Test [4] has as its system E. coli bacteria. The description is as above. In kind it is cell-based, Escherichia coli. Particulars: 20 microliter drop. As for the experimental part:
In this example, a microbicidal utility substrate is made of a nonwoven rayon gauze material graft polymerized with diallyldimethylammonium chloride (DADAMC), and containing approximately 10 weight % poly(DADMAC)), and SofWick, a commercially available rayon gauze material manufactured by Johnson & Johnson were used as substrates. The material was prepared via modification of the SofWick substrate. Each substrate measured approximately 40 square inches. Substrates were dried at 60° C. for 30 minutes and then weighed. Both samples were trimmed to weigh exactly 1.00 grams each. A 0.5 weight % solution of Cefazolin Sodium USP (Geneva Pharmaceuticals) was prepared. Each sample was placed in a 50 mL screw-cap polypropylene centrifuge tube, along with 30 mL of the Cefazolin solution and the tubes were placed on a rotating agitator for 3 hours. The samples were removed from the solutions, then squeezed to remove excess solution, dried at 60° C. for 2 hours, then weighed. The sample weighed 1.05 grams, whereas the SofWick sample weighed 1.00 grams. […] The extraction liquid was saved for analysis.
The dried samples were placed in separate 50 mL centrifuge tubes containing 25 mL of distilled water, then placed in the rotating agitator overnight at room temperature. The samples were then removed, squeezed to remove excess solution, dried at 60° C. for 2 hours, then weighed. The sample weighed 1.03 grams, and the SofWick sample weighed 0.98 grams. […] The extraction liquid was saved for analysis This extraction procedure was repeated […] additional times to yield two series of six extraction liquids.
The extract solutions were tested for antimicrobial activity by placing single 20 microliter drops of the solutions at marked locations on an agar culture plate spread with ~3×10^3 CFU (continuous lawn) of E. coli bacteria. Plates were incubated overnight at 37° C., and the diameter of the “zone of inhibition”, or “ZOI” was measured. The size of this zone corresponds to the antibacterial activity of the extract solutions. […]

On to `CNC(=O)C(Cc1c[nH]c2ccccc12)NC(=O)C(CC(=O)O)CC(C)C` (centres unmarked) [GM1489], for which the “Ki values for MMPs” value in test [1] was “almost as good as Ilomastat”.

For the compound `NC[C@H]1O[C@H](O[C@H]2[C@H](O)[C@@H](O[C@H]3O[C@H](CO)[C@@H](O)[C@H](N)[C@H]3O)[C@H](N)C[C@@H]2N)[C@H](N)C[C@@H]1O` [tobramycin], the “killing of microorganisms with current and antibiotic” value in test [2] is “total killing of microorganisms”.

On to `CC1(C)S[C@@H]2[C@H](NC(=O)Cc3ccccc3)C(=O)N2[C@H]1C(=O)[O-].[K+]` [Penicillin G, Penicillin G Potassium], for which the ZOI diameter in test [3] (Penicillin G 0.01% control solution) is recorded as 0 mm; in test [3] (Penicillin G 0.1% control solution) it was 44 mm; in test [3] (Penicillin G 1.0% control solution), 56 mm.

With `[Na+].[O-][n+]1ccccc1[S-]` [SP, sodium pyrithione], the “ZIO of SP control solution” value is 12 mm in test [3] (0.01% SP) and 26 am in test [3] (0.1% SP).

As to `Cc1nnc(SCC2=C(C(=O)O)N3C(=O)[C@@H](NC(=O)Cn4cnnn4)[C@H]3SC2)s1` [Cefazolin, Cefazolin Sodium USP], the ZOI diameter is 0 mm in test [4] (Cefazolin 0.01% control solution), 18 mm in test [4] (Cefazolin 0.1% control solution) and 40 mm in test [4] (Cefazolin 1% control solution).

Turning to `CC(C)C[C@H](CC(=O)NO)C(=O)N[C@@H](Cc1c[nH]c2ccccc12)C(=O)O` [C-terminal carboxylic form of Ilomastat], the “Ki values for MMPs” value in test [1] is recorded as “lower”.
